{"source": "patent US7807369B2", "about": "“Methods and means for the treatment of HPV induced intraepithelial neoplasia” (Leiden University Medical Center, priority 2005, dated 2010)", "key": {"high-grade VIN": {"tested_on": "high-grade VIN", "assay": "Clinical response of high-grade VIN lesions to 5% imiquimod cream", "type": "in vivo, human", "excerpt": "Twenty-nine women with high-grade VIN (age range, 24-73 years; median age, 47 years) were recruited from the departments of gynecology of the Academic Medical Center, and Leiden and Erasmus University Medical Center, The Netherlands. On the average, these patients had been diagnosed with VIN3 5,4 years before enrollment in the study (range, 6 months-15 years). Eighteen women had undergone previous treatments for VIN3 (surgical excision, laser therapy or imiquimod treatment (#21, 24, 27)) before study entry.\n(§1) Seventeen of these 29 subjects (age 29-60 years, median 43 years) were experimentally treated with a 5% imiquimod cream. The patients were asked to apply the cream to the affected areas on the vulva twice weekly overnight for a maximum period of 16 weeks. In order to analyze the effect of imiquimod treatment on the HPV16-specific immune response, we collected serial blood and serum samples before the start of imiquimod treatment (T=0), after 8 weeks of treatment (T=8), and at the end of treatment (T=16). Vulvar lesions were assessed by direct measurement and photographic records at entry, and after 8 and 16 weeks of treatment. Clinical responses were defined as a complete response (CR), a partial response type1 (PR1), as defined by a reduction in lesion diameter from 76-99%, a partial response type2 (PR2), as defined by a reduction in lesion diameter from 26-75%, or no clinical response.\nStatistical analysis of the HPV16-specific proliferative responses associated with cytokine production was performed using Fisher's exact test. Fisher's Exact test (2-tailed) was used to analyze HPV-specific immunity to clinical response upon treatment with imiquimod. Statistical analyzes were performed using Graphpad Instat Software (version 3.0)."}, "[1]": {"tested_on": "HPV16 VLP-specific IgG and IgA", "assay": "HPV16 VLP ELISA of serum over time in imiquimod-treated patients", "type": "in vivo, human", "conditions": "serum at week 0, 8 and 16; 17 VIN3 patients", "description": "IgG and IgA reactivity to HPV16 VLPs over time in 17 VIN3 patients treated with imiquimod. At least two serum specimens were tested in every patient. Serological responses are shown at week 0 (before imiquimod treatment), week 8 (during imiquimod treatment) and at week 16 (after imiquimod treatment). The OD values are depicted as median ±SD of positive responses. The OD values were calculated by subtraction of the background response value and the mean OD value of the young children's sera.\nas §1, with “response. […]” for “response.”"}, "[2]": {"tested_on": "HPV16-specific IFNγ-producing T-cells", "assay": "HPV16-specific T-cell reactivity by IFNγ ELISPOT before, during and after imiquimod treatment", "type": "in vivo, human", "conditions": "PBMC at week 0, 8 and 16", "excerpt": "as §1, with “Clinical responses were defined as a complete response (CR), a partial response type1 (PR1), as defined by a reduction in lesion diameter from 76-99%, a partial response type2 (PR2), as defined by a reduction in lesion diameter from 26-75%, or no clinical response.” left out\nThe number of IFNγ producing HPV-specific T-cells, present in the peripheral blood of the 17 patients treated with imiquimod, was quantified using ELISPOT that was performed as described previously (29; 30). […] Spots were counted with a fully automated computer-assisted-video-imaging analysis system (Bio Sys). Specific spots were calculated by subtracting the mean number of spots+2×SD of the medium control from the mean number of spots in experimental wells provided that the mean number of spots of the medium control wells were either <10 or >10 with a standard deviation <20% of the mean. […]"}, "VIN": {"tested_on": "VIN", "conditions": "topical treatment of VIN; estimate from refs 17-21; cited from earlier work"}, "[3]": {"conditions": "of 17 women treated, 5% cream, max 16 weeks"}}, "data": [{"smiles": "CC(C)Cn1cnc2c(N)nc3ccccc3c21", "note": "[imiquimod, 1-(2-methylpropyl)-1H-imidazo[4,5-c]quinolin-4-amine]", "values": [{"measurement": "women with overt clinical response (CR or PR1, 76-100% reduction in lesion size)", "setting": "high-grade VIN; 13 of 17 women with high-grade VIN, 5% cream twice weekly, max 16 weeks", "result": 76, "unit": "%"}, {"measurement": "likelihood of CR or PR1 in patients without an HPV-specific immune response", "setting": "high-grade VIN; HPV16+ patients (n=15), versus those with a response, p=0.03, 2-sided Fisher's exact test", "result": "less likely to show such a clinical improvement"}, {"measurement": "patients with no reduction in size of the affected area of vulvar disease", "setting": "high-grade VIN; [3]", "result": "Three"}, {"measurement": "patients with only minimal improvement upon treatment", "setting": "high-grade VIN; [3]", "result": "one"}, {"measurement": "patients with complete or near complete clinical response (CR or PR1)", "setting": "high-grade VIN; the 8 HPV16+ patients with an HPV-specific Th1 immune response (of n=15 HPV16+)", "result": 8, "unit": "patients"}, {"measurement": "change of HPV16 VLP-specific IgG and IgA response", "setting": "[1]", "result": "did not overly change"}, {"measurement": "effect on numbers of HPV16-specific T-cells", "setting": "[2]", "result": "In none of the patients a clear-cut increase of HPV16-specific T-cells was detected"}, {"measurement": "clinical success rates", "setting": "VIN", "result": "30-87%"}]}]}
